According to patent publication US20190167676A1, “METHODS FOR IMPROVING RESISTANCE TO SKELETAL MUSCLE FATIGUE” (Cytokinetics, Inc., priority 2012, published 2019):

Key:
[1] = Plasma concentrations, Phase II study; assay type: in vivo, human
[2] = biological target: T1, myofibrils from slow skeletal muscle (Homo sapiens, UniProt P63316); details: cited from earlier work
T1 construct: from tissue; host or cells: slow skeletal muscle myofibrils

[3] = biological target: T2, myofibrils from cardiac muscle (Homo sapiens, UniProt P63316); details: cited from earlier work
T2 construct: from tissue; host or cells: cardiac muscle myofibrils

[4] = system: rat EDL muscle; assay: Fatigue in rat EDL muscle following femoral artery ligation (FAL); assay type: in vivo; details: for average stimulation frequency for force production similar to pre-dose: vehicle 30 Hz
Source text: Rats were placed under anesthesia using isoflurane and the skin around the experimental leg was removed. The distal end of the EDL muscle and its associated tendon were then isolated. The rat was then placed on the platform of an Aurora in-situ muscle analysis rig (806C), maintained at body temperature via a circulating water system. The knee was immobilized in a clamp between two sharpened screws and the distal tendon cut and tied to the arm of a force transducer (Aurora Scientific, Ontario, Canada) using a silk suture. The muscle was stimulated directly via the peroneal nerve. For isolation of the nerve, a 1 cm incision was made at the upper thigh and the overlying gastrocnemius muscle was cut to expose an approximate 5 mm stretch of the peroneal nerve. This was then dissected free of surrounding connective tissue and a pair of stainless steel needle electrodes (0.10 mm) were hooked around the exposed nerve. Muscle contractile properties were assessed by applying an electrical current to the nerve and recording the force generated by the muscle via a servomotor. The muscle length was adjusted to produce the maximum isometric force (Lo) after sub-maximal stimulation (30 Hz, 1 ms pulses, 350 ms train duration). Once Lo had been established, the nerve was stimulated every 2 minutes with a 30 Hz train (1 ms stimuli, 350 ms duration) for the course of the experiment. This preparation was stable for 4-6 hours.
With the rat in situ EDL muscle preparation described in Example 3, a fatiguing protocol was utilized where muscle was stimulated for 600 seconds. Vehicle-treated muscle was electrically stimulated at 30 Hz while the stimulation frequency was reduced in Compound A treated rats to ensure similar force production to pre-dose levels, prior to femoral artery ligation (average stimulation frequency of 29 and 26Hz, for 0.5 mg/kg and 1 mg/kg Compound A, respectively). This protocol produced a robust and reproducible fatigue in EDL muscle following femoral artery ligation, with a transient increase to 136.0±6.8% of initial force over the first 90-100 seconds, followed by a rapid drop in force before stabilization at approximately 40% of initial force. The initial rise in tension is believed to be due to Pi-induced increases in free intracellular Ca^2+ due to inhibition of sarco(endo)plasmic reticulum Ca^2+-ATPases (SERCAs) pumping into the SR (Allen, Physiol Rev 88:287-332, 2008). Following ligation of the femoral artery (R. A. Challiss et al. Biochem J. 1986 Dec. 1; 240(2):395-401) Compound A was administered in solution (50% PEG300/10% EtOH/40% Cavitron formulation) via a jugular vein catheter as a single slow bolus over a 2 min period.
Time for force to decrease to 50% of initial force was lengthened from 259±30 seconds to […] (P<0.0001, T-test).

[5] = system: patients with peripheral artery disease and claudication; assay: 6-Minute Walk Test, Phase II study; assay type: in vivo, human; details: single doses 375, 500, 750 mg; 4 hours after dosing
Source text: (§1) This study was a double-blind, randomized, placebo-controlled, three-period cross-over, hypothesis generating Phase II study in patients with peripheral artery disease and claudication. […] Secondary objectives included (a) evaluation and characterization of the relationship, if any, between the doses and plasma concentrations of Compound A and its pharmacodynamic effects, and (b) evaluation of the safety and tolerability of Compound A administered as single doses.
(§2) Assessments include 1) Bilateral Heel Raise Test (as described below) using electrogoniometry at 3 and 6 hours after dosing, and 2) 6-Minute Walk Test at 4 hours after dosing. Results were analyzed using a repeated-measures ANCOVA with treatment, sequence, period, baseline, and patient in the model. In the event of model assumption violations, non-parametric methods were utilized

[6] = system: patients with peripheral artery disease and claudication; assay: Safety and tolerability, Phase II study; assay type: in vivo, human
Experimental: as §1
as §2, with “Single doses of each of 375 mg Compound A, 750 mg Compound A and placebo were administered in random order with a 6 to 10 day wash out between each dose. […] Assessments” for “Assessments”

[7] = system: healthy female rats; assay: Cage grid hang time; assay type: in vivo, rat
Experimental: Static fatigue in conscious rats was assessed by measuring the length of time that healthy female rats would hang upside down from a cage grid. Rats were trained to hang upside-down from a cage grid and the time to drop to soft padding below was recorded. Baseline hang-times were recorded for each animal (n=24) for a two week period of time. The rats were then treated with Compound A (200 ppm) in chow for two weeks while hang times were monitored daily. Finally, the rats were withdrawn from Compound A in their chow for five days while hang times were recorded daily.

[8] = system: skinned human vastus lateralis fast fibers; details: skinned fast fibers from muscle biopsies; cited from earlier work
[9] = system: patients with peripheral artery disease and claudication; assay: Bilateral heel raise test, Phase II study; assay type: in vivo, human
Experimental: as §1
Single doses of each of 375 mg Compound A, 750 mg Compound A and placebo were administered in random order with a 6 to 10 day wash out between each dose. […] Results were analyzed using a repeated-measures ANCOVA with treatment, sequence, period, baseline, and patient in the model. […]
In the bilateral heel raise test, the lateral aspect of the ankle on the dominant leg was instrumented with an electromechanical goniometer connected to a PC-based data collection system to monitor and record ankle angle position and range of motion (Noraxon U.S.A., Inc., Scottsdale, Ariz.). […] The total number of heel raises, time, and a calculated index of work performed were assessed from the beginning of test to the onset of claudication and to maximal exercise. An index of work performed was calculated as follows: Heel Raise Work Index (HRWI)=(sinθ°*foot length)*body mass.

[10] = 200 ppm in chow, average final three days of two week dosing
[11] = after withdrawal, average final three days of five day period

For `C#Cc1cnc2nc(O)n(C(CC)CC)c2n1` [Compound A, 6-ethynyl-1-(pentan-3-yl)-1H-imidazo[4,5-b]pyrazin-2-ol], the “mean plasma concentrations vs dose” value ([1]; 375, 500, 750 mg single doses) is listed as “relatively dose proportional increases”, the “mean plasma concentrations over 24-hour observation period” value ([1]; even at the 375 mg dose) is listed as “remained within the pharmacologically active range” and the effect in myofibrils [2] is listed as “little or no effect”. For the same molecule, the effect in myofibrils [3] was “little or no effect”, the “average stimulation frequency for force production similar to pre-dose” value ([4]; 0.5 mg/kg) was 29 Hz and the “average stimulation frequency for force production similar to pre-dose” value ([4]; 1 mg/kg) was 26 Hz. The “time of rise to initial increase in force” value ([4]; FAL rats) was 160 to 170 s, the “time to fatigue and tension-generating capacity” value ([4]; FAL rats vs vehicle, FIG. 5) was “dose-dependent increase” and the “initial increase in force” value ([4]; FAL rats, jugular vein bolus) was 156.3±10.4 % of initial force. For the same molecule, the “time for force to decrease to 50% of initial force” value ([4]; FAL rats, vehicle 259±30) was 752 ± 64 s, the “distance traversed during 6-Minute Walk Test” value [5] was “dose and concentration dependent decrease” and the adverse events ([6]; 750 mg single dose) was “adverse events in two patients”. For the same molecule, the “adverse events vs dose” value ([6]; single doses 375-750 mg) was “Dose related adverse events, particularly dizziness and others related to walking”, the grid hang time [7, 10] was 899 ± 157 s and the “grid hang time compared to baseline” value [7, 10] was 160±18%. For the same molecule, the grid hang time [7, 11] was 698 ± 122 s, the “grid hang time, normalized performance” value [7, 11] was 124±12% and the force-calcium relationship [8] was “dramatically left-shifts”. For the same molecule, the “relationship between plasma concentrations and outcomes in the Heel Raise Test” value ([9]; PK/PD analysis, FIG. 14) was “strong positive relationship” and the “calf muscle performance by heel raise testing” value ([9]; single doses 375, 500, 750 mg, 3 and 6 hours after dosing) was “increased calf muscle performance”.
